Experimental data: patent publication US6369049B1, “Treatment of mastitis” (Eli Lilly and Company, priority 1998, dated 2002)
Marks after values point to notes of the source that are not given here.

Tests used:
[1] = tested on: Staphylococcus aureus 10092 (Newbould); test: Induced Staphylococcus aureus mastitis model in lactating goats; type: in vivo; settings: S. aureus 10092 challenge, in peanut oil
Excerpt: Sixteen lactating goats were selected based on the absence of Staphylococcus aureus in pre-challenge milk cultures. Maintenance ration was provided to the animals throughout the study. The goats were milked twice each day using a portable goat milker.
Milk samples were collected during the morning milking. One day prior to challenge, milk culture samples were collected from each half of the test animals to determine if there was a pre-existing infection. Additionally, a sample was collected from each half for Somatic Cell Count (SCC) determination. A milk culture sample and a sample for SCC were collected from each half 24 hours post-challenge and on Days +4 to +6, +8, +11, +13, and +15.
Udder scoring was performed during each milking using the following table:
General health observations and body temperature were recorded once a day following milking during the challenge and treatment periods.
Milk samples were submitted for analysis for SCC using an electronic somatic cell counting system.
Milk culture samples were assayed for bacterial culture by plating 1.0 mL and 0.1 mL of the milk sample directly onto duplicate blood agar plates. Additionally, dilutions […] the milk sample were plated. Plates were incubated overnight at 37° C.
Staphylococcus aureus 10092 (Newbould) was used as the challenge strain. The challenge culture was grown in Tryptic Soy Broth (TSB) from a lyovial stock overnight (16 hours) at 37° C. TSB (100 mL) was inoculated with 1 mL of the overnight culture and incubated at 37° C. with shaking for 4 hours. The culture was centrifuged at 9000 rpm for 10 minutes at 10° C.; supernatant was removed and the pellet was resuspended in phosphate buffered saline (PBS). Optimum O.D. reading at 650 nm was approximately 0.035. A 10-fold dilution series was prepared with saline to determine the CFU/mL, plating 10^−5, 10^−6, and 10^−7 dilutions onto duplicate blood agar plates. The 10^−7 dilution (approximately 10 CFU/mL) was used for the challenge material, yielding a challenge of 50 CFU/half with a 5-mL infusion.
Sixteen goats were used for the trial. During a one day pre-challenge period, milk samples were collected and temperatures were taken during the morning milking. Milk/udder evaluations were documented during the morning and afternoon milkings.
Staphylococcus aureus 10092 was infused into both halves in each of the goats. The goats were challenged following the morning milking and milked in the afternoon on the day of challenge. The challenge inoculum volume was 5 mL/half containing approximately 50 CFU S. aureus.
For the 24 hr post-challenge period milk samples were collected during the morning milking, and milk/udder evaluations made during the morning and afternoon milking.
Treatment was started at 36 hours post-challenge. Milk samples were collected for culture and SCC 24 hours post-challenge, prior to the morning milking, and the treatment period started following the afternoon milking.
Eight halves (4 goats) each were treated for 2 consecutive milkings 12 hours apart, following milking. […]
Following treatment, the goats were milked and observed for 15 days. Milk samples were collected on Days +4 to +6, +8, +11, +13, and +15 to determine if the infection had cleared.
Establishment of mastitis was determined by bacterial culturing, severity of udder scoring, somatic cell count results, and body temperature.
On Days +2 to +6, milk samples were collected for a colorimetric assay to determine whether the antibiotic was still present in the milk.

S. aureus ATCC 29213 = test: MIC vs. S. aureus ATCC 29213; type: cell-based, Staphylococcus aureus; parameters: unit not given beside the values; settings: Incubated at 37° C. overnight
Excerpt: (§1) Tables 2 and 2a summarize the minimal inhibitory concentrations (MIC's) at which illustrative formula I compounds and cephalothin inhibit certain microorganisms that are associated with mastitis, such as Staphylococcus aureus 10092 (Newbould strain).

S. aureus 174 C = test: MIC vs. S. aureus 174 C; type: cell-based, Staphylococcus aureus; parameters: unit not given beside the values; settings: Incubated at 37° C. overnight
Excerpt: as §1

[2] = tested on: Staphylococcus aureus 10092 (Newbould strain); test: MIC vs. S. aureus 10092 (Newbould strain); type: cell-based; parameters: unit not given beside the values; settings: for MIC vs. S. aureus 10092: Table 2, incubated at 37° C. overnight; for MIC vs. Staphylococcus aureus 10,092: Table 2a
Excerpt: as §1

S. aureus F1C = test: MIC vs. S. aureus F1C; type: cell-based, Staphylococcus aureus; parameters: unit not given beside the values; settings: Incubated at 37° C. overnight
Excerpt: as §1

[3] = tested on: Streptococcus uberis 150 L; test: MIC vs. Streptococcus uberis 150 L; type: cell-based; parameters: unit not given beside the values; settings: Incubated at 37° C. overnight
Excerpt: as §1

[4] = tested on: Streptococcus uberis 166 L; test: MIC vs. Streptococcus uberis 166 L; type: cell-based; parameters: unit not given beside the values; settings: Incubated at 37° C. overnight
Excerpt: as §1

[5] = tested on: Streptococcus agalactiae 150 B; test: MIC vs. Streptococcus agalactiae 150 B; type: cell-based; parameters: unit not given beside the values; settings: Incubated at 37° C. overnight
Excerpt: as §1

[6] = tested on: Streptococcus dysgalactiae; test: MIC vs. Streptococcus dysgalactiae; type: cell-based; parameters: unit not given beside the values; settings: Incubated at 37° C. overnight
Excerpt: as §1

[7] = tested on: Pasteurella multocida 108E (bovine); test: MIC vs. Pasteurella multocida 108E (bovine); type: cell-based; settings: Incubated at 37° C. overnight
Excerpt: (§2) The formula I compounds are also active against certain Gram-negative species. Tables 3 and 3a show the MIC's of Formula I compounds against certain Gram-negative species.

[8] = tested on: Pasteurella multocida ATCC 12945; test: MIC vs. Pasteurella multocida ATCC 12945; type: cell-based; settings: Incubated at 37° C. overnight
Excerpt: as §2

[9] = tested on: Pasteurella multocida 1051 (swine); test: MIC vs. Pasteurella multocida 1051 (swine); type: cell-based; settings: Incubated at 37° C. overnight
Excerpt: as §2

[10] = tested on: Pasteurella multocida 10,102 (bovine); test: MIC vs. Pasteurella multocida 10,102 (bovine); type: cell-based; settings: Incubated at 37° C. overnight
Excerpt: as §2

[11] = tested on: Pasteurella haemolytica 114F (bovine); test: MIC vs. Pasteurella haemolytica 114F (bovine); type: cell-based; settings: Incubated at 37° C. overnight
Excerpt: as §2

[12] = tested on: Pasteurella haemolytica 128K (bovine); test: MIC vs. Pasteurella haemolytica 128K (bovine); type: cell-based; settings: for MIC vs. Pasteurella haemolytica 128K (bovine): Table 3, incubated at 37° C. overnight; for MIC against Pasteurella haemolytica Strain 128K: Table 3a, incubated at 37° overnight
Excerpt: as §2

[13] = tested on: Pasteurella haemolytica 129R (bovine); test: MIC vs. Pasteurella haemolytica 129R (bovine); type: cell-based; settings: Incubated at 37° C. overnight
Excerpt: as §2

Salmonella typhimurium = test: MIC vs. Salmonella typhimurium; type: cell-based; settings: Incubated at 37° C. overnight
Excerpt: as §2

Escherichia coli = test: MIC vs. Escherichia coli; type: cell-based; parameters: unit not given beside the values; settings: Incubated at 37° C. overnight
Excerpt: as §2

[14] = tested on: Staphylococcus epidermidis 174B; test: MIC vs. Staphylococcus epidermidis 174B; type: cell-based; parameters: unit not given beside the values; settings: Table 2a
Excerpt: as §1

[15] = tested on: Staphylococcus aureus 168H; test: MIC vs. Staphylococcus aureus 168H; type: cell-based; parameters: unit not given beside the values; settings: Table 2a
Excerpt: as §1

[16] = tested on: Streptococcus agalactiae 150G; test: MIC vs. Streptococcus agalactiae 150G; type: cell-based; parameters: unit not given beside the values; settings: Table 2a
Excerpt: as §1

[17] = tested on: Streptococcus uberis 167I; test: MIC vs. Streptococcus uberis 167I; type: cell-based; parameters: unit not given beside the values; settings: Table 2a
Excerpt: as §1

[18] = tested on: Streptococcus dysgalactiae 152B; test: MIC vs. Streptococcus dysgalactiae 152B; type: cell-based; parameters: unit not given beside the values; settings: Table 2a
Excerpt: as §1

[19] = tested on: Staphylococcus aureus 170C; test: MIC vs. Staphylococcus aureus 170C; type: cell-based; parameters: unit not given beside the values; settings: Table 2a
Excerpt: as §1

Streptococcus faecalis = test: MIC vs. Streptococcus faecalis; type: cell-based; parameters: unit not given beside the values; settings: Table 2a
Excerpt: as §1

[20] = approximately 25 mg/5 mL dose per half, 2 consecutive milkings 12 hours apart

O=C(COc1c(F)c(F)c(C(F)(F)F)c(F)c1F)NC1C(=O)N2C(C(=O)O)=C(Cl)CSC12 (centres unmarked) [Compound 10] was tested, and the “% Bacteriologic Cures” value [1, 20] was 57%.
In the case of O=C(COc1c(F)c(F)c(F)c(F)c1F)NC1C(=O)N2C(C(=O)O)=C(Cl)CSC12 (centres unmarked) [Compound 1], the “MIC vs. S. aureus ATCC 29213” value (S. aureus ATCC 29213) is reported as 0.5, the “MIC vs. S. aureus 174 C” value (S. aureus 174 C) is reported as 0.5 and the “MIC vs. S. aureus 10092” value [2] is reported as 0.25. For the same compound, the “MIC vs. S. aureus F1C” value (S. aureus F1C) was 0.5, the “MIC vs. Streptococcus uberis 150 L” value [3] was 0.25 and the “MIC vs. Streptococcus uberis 166 L” value [4] was 0.25. The “MIC vs. Streptococcus agalactiae 150 B” value [5] was 0.125, the “MIC vs. Streptococcus dysgalactiae” value [6] was 0.125 and the “MIC vs. Pasteurella multocida 108E (bovine)” value [7] was 0.5. The “MIC vs. Pasteurella multocida ATCC 12945” value [8] was 0.125, the “MIC vs. Pasteurella multocida 1051 (swine)” value [9] was 0.5 and the “MIC vs. Pasteurella multocida 10,102 (bovine)” value [10] was 0.5. For the same compound, the “MIC vs. Pasteurella haemolytica 114F (bovine)” value [11] was 4, the “MIC vs. Pasteurella haemolytica 128K (bovine)” value [12] was 4 and the “MIC vs. Pasteurella haemolytica 129R (bovine)” value [13] was 4. The “MIC vs. Salmonella typhimurium” value (Salmonella typhimurium) was over 128, the “MIC vs. Escherichia coli” value (Escherichia coli) was over 128 and the “% Bacteriologic Cures” value ([1]; dosing was 100 mg/5 mL dose) was 75* %.
In the case of O=C(COc1ccc(OC(F)(F)F)cc1)NC1C(=O)N2C(C(=O)O)=C(Cl)CSC12 (centres unmarked) [Compound 8], the “MIC vs. Staphylococcus aureus 10,092” value [2] is reported as 1, the “MIC vs. Staphylococcus epidermidis 174B” value [14] is reported as 1 and the “MIC vs. Staphylococcus aureus 168H” value [15] is reported as 1. The “MIC vs. Streptococcus agalactiae 150G” value [16] was 1, the “MIC vs. Streptococcus uberis 167I” value [17] was 128 and the “MIC vs. Streptococcus dysgalactiae 152B” value [18] was 0.5. The “MIC vs. Staphylococcus aureus 170C” value [19] was under 0.125, the “MIC vs. Streptococcus faecalis” value (Streptococcus faecalis) was 64 and the “MIC against Pasteurella haemolytica Strain 128K” value [12] was 32. The “% Bacteriologic Cures” value [1, 20] was 50%.
CC(=O)OCC1=C(C(=O)O)N2C(=O)[C@@H](NC(=O)Cc3cccs3)[C@H]2SC1 [Cephalothin, reference compound] was tested, and the “MIC vs. S. aureus ATCC 29213” value (S. aureus ATCC 29213) was 0.25, the “MIC vs. S. aureus 174 C” value (S. aureus 174 C) was 0.25 and the “MIC vs. Staphylococcus aureus 10,092” value [2] was 0.5. The “MIC vs. S. aureus F1C” value (S. aureus F1C) was 0.25, the “MIC vs. Streptococcus uberis 150 L” value [3] was 0.125 and the “MIC vs. Streptococcus uberis 166 L” value [4] was 0.0625. The “MIC vs. Streptococcus agalactiae 150 B” value [5] was 0.125, the “MIC vs. Streptococcus dysgalactiae” value [6] was 0.0625-0.125 and the “MIC vs. Staphylococcus epidermidis 174B” value [14] was 0.5. The “MIC vs. Staphylococcus aureus 168H” value [15] was 0.5, the “MIC vs. Streptococcus agalactiae 150G” value [16] was 0.5 and the “MIC vs. Streptococcus uberis 167I” value [17] was 32. For the same compound, the “MIC vs. Streptococcus dysgalactiae 152B” value [18] was 0.5, the “MIC vs. Staphylococcus aureus 170C” value [19] was 0.5 and the “MIC vs. Streptococcus faecalis” value (Streptococcus faecalis) was 16. For the same compound, the “MIC vs. Pasteurella multocida 108E (bovine)” value [7] was 0.5, the “MIC vs. Pasteurella multocida ATCC 12945” value [8] was 0.25 and the “MIC vs. Pasteurella multocida 1051 (swine)” value [9] was 0.25. The “MIC vs. Pasteurella multocida 10,102 (bovine)” value [10] was 0.5, the “MIC vs. Pasteurella haemolytica 114F (bovine)” value [11] was 1 and the “MIC vs. Pasteurella haemolytica 128K (bovine)” value [12] was 0.5. For the same compound, the “MIC against Pasteurella haemolytica Strain 128K” value [12] was 1, the “MIC vs. Pasteurella haemolytica 129R (bovine)” value [13] was 1 and the “MIC vs. Salmonella typhimurium” value (Salmonella typhimurium) was 4. The “MIC vs. Escherichia coli” value (Escherichia coli) was 8.
For O=C(Cc1c(F)c(F)c(F)c(F)c1F)NC1C(=O)N2C(C(=O)O)=C(Cl)CSC12 (centres unmarked) [Compound 4], the “MIC vs. S. aureus ATCC 29213” value (S. aureus ATCC 29213) was 1, the “MIC vs. S. aureus 174 C” value (S. aureus 174 C) was 1 and the “MIC vs. S. aureus 10092” value [2] was 0.5. The “MIC vs. S. aureus F1C” value (S. aureus F1C) was 1, the “MIC vs. Streptococcus uberis 150 L” value [3] was 0.5 and the “MIC vs. Streptococcus uberis 166 L” value [4] was 0.0156. The “MIC vs. Streptococcus agalactiae 150 B” value [5] was 0.5 and the “MIC vs. Streptococcus dysgalactiae” value [6] was 0.0312.
